Test results reported in US20200316053A1, “APPLICATION OF NOVEL TYROSINE KINASE INHIBITOR, ANLOTINIB, IN OSTEOSARCOMA AND CHONDROSARCOMA” (CHIA TAI TIANQING PHARMACEUTICAL GROUP CO., LTD., priority 2018, published 2020).
pIC50: −log10 of the molar value. Where two headings read alike, the source gives them in different places.

Experiments:
[1] = test system: osteosarcoma cell lines 143B, U2OS, MG63 and SJSA; assay: Detection of cell apoptosis by flow cytometer (Annexin-V-FITC/PI), with or without cisplatin; assay type: cell-based, Human; settings: 2 μM Anlotinib with 10 μM cisplatin (DDP), 24 h
Method: 1.2.5 Detection of cell apoptosis by flow cytometer: 143B cells, U2OS cells, MG63 cells and SJSA cells were added to the liquid culture media containing 2 μM Anlotinib (with or without 10 μM cisplatin (DDP)) for cultivation. The cells were collected after 24 h, centrifuged at 1000 r/min for 1 min, and rinsed with PBS. Afterwards, an Annexin-V-FITC/PI Cell Apoptosis Detection Kit was used to detect the apoptosis of cells. The cells were added to 100 μL of 1×Binding buffer and resuspended, 5 μL of AnnexinV-FITC and 2.5 μL of PI staining reagent were added, and the mixture was shaken and mixed evenly in the dark. The resultant was reacted at room temperature for 15 min, 300 μL of 1×Binding buffer was then added, and the resulting mixture was mixed evenly and detected by a flow cytometer. The experiment was repeated 3 times.

[2] = test system: osteosarcoma cell lines 143B, U2OS, MG63 and SJSA; assay: Anti-proliferation effect on osteosarcoma cell lines (statement for all four lines); assay type: cell-based, Human; settings: 0, 1, 2 or 4 μM for 24 or 48 hours; time- and concentration-dependent
Method: (§1) 1.2.2 Detection of cell proliferation by cck-8: 143B cells, U2OS cells, MG63 cells and SJSA cells in logarithmic growth phase were collected, rinsed with PBS, counted, and dispensed into separate tubes. The cells were seeded into a 96-well plate (3000 cells/well) and cultured for 24 h to allow for cell attachment. Anlotinib with different amount-of-substance concentrations (0 μM, 1 μM, 2 μM, 4 μM, 8 μM, 16 μM, 32 μM, and 64 μM) were then added, the mixture was incubated for 24 h, and then the detection was carried out. 100 μL of cck-8 reagent diluted 10-fold with DMEM culture medium was added into each well and the resulting mixture was incubated at 37° C. for 45 minutes. The absorbance value of the resultant in each well at 450 nm was detected by using a microplate reader.
In order to evaluate the anti-proliferation effects of Anlotinib on osteosarcoma cell lines 143B, U2OS, MG63 and SJSA, the osteosarcoma cell lines were treated with Anlotinib with a concentration of 0 μM, 1 μM, 2 μM or 4 μM for 24 hours or 48 hours.

U2OS cells = assay: Detection of cell proliferation by cck-8; assay type: cell-based; settings: Homo sapiens
Method: (§2) 1.2.1 Cell culture: Osteosarcoma cell lines 143B, […], MG63 and SJSA were cultured in DMEM complete culture medium (containing fetal bovine serum with a volume fraction of 10%, 0.1 g/L streptomycin, and 100 U/mL penicillin), and was incubated in a thermostatic incubator containing 5% CO2 (volume fraction) at 37° C. When about 85% cell confluence was reached, the cells were detached by using a mixed cell detachment solution containing 0.02% EDTA and 0.25% trypsin, and then the cells were collected, centrifuged at 1000 r/min for 3 min, and subcultured.
as §1, with “Anlotinib with different amount-of-substance concentrations (0 μM, 1 μM, 2 μM, 4 μM, 8 μM, 16 μM, 32 μM, and 64 μM) were then added, the mixture was incubated for 24 h, and then the detection was carried out.” left out

143B cells = assay: Detection of cell proliferation by cck-8; assay type: cell-based; settings: Homo sapiens
Method: as §2
as §1, with “Anlotinib with different amount-of-substance concentrations (0 μM, 1 μM, 2 μM, 4 μM, 8 μM, 16 μM, 32 μM, and 64 μM) were then added, the mixture was incubated for 24 h, and then the detection was carried out.” left out

MG63 cells = assay: Detection of cell proliferation by cck-8; assay type: cell-based; settings: Homo sapiens, MG-63
Method: as §2
as §1, with “Anlotinib with different amount-of-substance concentrations (0 μM, 1 μM, 2 μM, 4 μM, 8 μM, 16 μM, 32 μM, and 64 μM) were then added, the mixture was incubated for 24 h, and then the detection was carried out.” left out

SJSA cells = assay: Detection of cell proliferation by cck-8; assay type: cell-based; settings: Homo sapiens
Method: as §2
as §1, with “Anlotinib with different amount-of-substance concentrations (0 μM, 1 μM, 2 μM, 4 μM, 8 μM, 16 μM, 32 μM, and 64 μM) were then added, the mixture was incubated for 24 h, and then the detection was carried out.” left out

[3] = test system: osteosarcoma cell lines 143B, U2OS, MG63 and SJSA; assay: Detection of cell cycle by flow cytometer; assay type: cell-based, Human; settings: 0-4 μM, 24 h, PI staining
Method: 1.2.4 Detection of cell cycle by flow cytometer: 143B cells, U2OS cells, MG63 cells and SJSA cells were added to the liquid culture media containing different amount-of-substance concentrations of Anlotinib (0 μM, 1 μM, 2 μM, and 4 μM) for cultivation. The cells were collected after 24 h, centrifuged at 1000 r/min for 1 min, rinsed with PBS, and fixed with 70% ethanol. The PI staining solution of cell cycle analysis kit was added, the mixture was incubated in the dark at room temperature for 15 min, and the detection was carried out by using a flow cytometer. Images were analyzed by using ModFit software. The experiment was repeated 3 times.

[4] = test system: osteosarcoma cell lines 143B, U2OS, MG63 and SJSA; assay: Transwell cell migration and invasion; assay type: cell-based, Human; settings: 1 μM, 24 hours
Method: 1.2.6 Experimental analysis of Transwell cell migration and invasion: Cells were seeded at the upper end of the Transwell chamber (5×10^4 cells/well). 143B cells, U2OS cells, MG63 cells and SJSA cells were treated with 1 μM Anlotinib. A culture medium containing 2% serum was added to the upper end of the Transwell chamber (4 hours of pretreatment with 10% matrigel was required in the invasion experiment), and a culture medium containing 10% serum was added to the lower end. After 24 hours, the cells were fixed with 4% paraformaldehyde, stained with crystal violet, and photographed under microscope.

[5] = test system: osteosarcoma of the right tibia, lung and pelvic metastasis; assay: Clinical case Example 7: patient
Method: A patient underwent the resection of the lesion on Nov. 7, 2016. On Nov. […] PORT implantation was performed under general anesthesia on Nov. 29, 2016, and the postoperative systemic intravenous adjuvant chemotherapy was performed. […] 1, 2016, and methotrexate (2 cycles of chemotherapy) was administered from Dec. 16, 2016 to Jan. 5, 2017. The CT re-examination performed on Jan. […] Ifosfamide (1 cycle of chemotherapy) was administered on Jan. […] The segmental resection of the tumor of the right proximal tibia, the joint replacement and the transposition of gastrocnemius muscle flap were performed under general anesthesia on Feb. 7, 2017. […] Ifosfamide (1 course of chemotherapy) was administered on Mar. […] Methotrexate was administered on Mar. […] 15, 2017. […] 4, 2017, ifosfamide chemotherapy was given on Jun. […] Methotrexate chemotherapy was given on Jul. […] Ifosfamide chemotherapy was given on Aug. […] The CT re-examination performed on Jan. […] A puncture biopsy of the mass of right femur was performed on Oct.
The patient was treated with anlotinib dihydrochloride capsule (12 mg) once a day via oral administration (2 weeks of continuous administration and 1 week of withdrawal being considered as one treatment cycle) from Nov. 16, 2018. […] 26, 2018.

[6] = test system: osteosarcoma of the right proximal fibula; assay: Clinical case Example 8: patient; assay type: in vivo; settings: prior chemotherapy, 1 cycle
Method: A patient experienced a pain on the outer side of the right lower leg with no obvious predisposing cause for 6 months. The pain was persistent and unrelated to movements such as walking, and could not be alleviated after rest. The patient was neither diagnosed nor treated, and the pain was gradually aggravated and occurred at night. […] The patient went for consultation on Dec. 1, 2017, and an incision biopsy of the tumor of the limb was performed on December 5. […] On Apr.
Methotrexate chemotherapy was given for 1 day on Dec. 12, 2017, Feb. 7, 2018, May 4, 2018 and Jul. 6, 2018, respectively. IFO chemotherapy (1 cycle) was given during the following time periods: from Dec. 16, 2017 to […], from Mar. 2, 2018 to Mar. 7, 2018 (the therapeutic effect was evaluated as SD), from Apr. 18, 2018 to Apr. 22, 2018 (platelet reduction (Grade IV)), from Jun. 14, 2018 to Jun. 18, 2018 (the therapeutic effect was evaluated as SD), from Aug. 30, 2018 to Sep. 3, 2018 (the therapeutic effect was evaluated as PD). Cisplatin and amrubicin chemotherapy (1 cycle) was respectively given during the following time periods: from Jan. 17, 2018 to Jan. 20, 2018, from May 24, 2018 to May 27, 2018, and from Jul. 20, 2018 to Jul. 23, 2018 (the therapeutic effect was evaluated as SD). […]

[7] = test system: osteosarcoma (chondroblastic type) of the right proximal humerus, bilateral lung metastasis; assay: Clinical case Example 6: patient; assay type: in vivo, human; settings: prior high-dose chemotherapy, 6 courses, Aug-Dec 2016
Method: A patient underwent the surgical removal of the osteosarcoma lesion in the right proximal humerus and the humeral head prosthesis replacement on Apr. 27, 2013. […] Doxorubicin and ifosfamide were administered after the surgery. […] Bone marrow support therapy was given during the intermission of chemotherapy until the end of chemotherapy in August 2013. […] 1. […] 2. There were enlarged lymph nodes in the right axilla with slight increase in metabolism. The patient was treated by being administered with CIK cells via infusion after the completion of the chemotherapy. At the end of 2015, the patient experienced pain in the upper part of the left humerus, no obvious mass was seen, and the patient suffered from the recurrent pain. […] 1. There was no sign of tumor recurrence in the right humerus after the surgery of the osteosarcoma of the right humerus and the comprehensive treatment, and there was a stripe-shaped hypermetabolic lesion in the upper part of the left humerus. 2. There was no sign of lymph node metastasis in the bilateral armpits. 3. […] On Jun. 7, 2016 and Jul. 1, 2016, the patient underwent 2 courses of doxorubicin and ifosfamide chemotherapy and the process went well. […] Microwave inactivation of the tumor of the left proximal humerus and the bone graft internal fixation was performed on Jul. 22, 2016. […]

With `COc1cc2c(Oc3ccc4[nH]c(C)cc4c3F)ccnc2cc1OCC1(N)CC1` [Anlotinib, 1-[[[4-(4-fluoro-2-methyl-1H-indol-5-yl)oxy-6-methoxyquinolin-7-yl]oxy]methyl]cyclopropylamine] the “apoptosis of osteosarcoma cell lines caused by cisplatin” value [1] was “significantly enhancing”, the “effect on the proliferation of the osteosarcoma cell lines” value [2] was “significant inhibitory effect” and the pIC50 (U2OS cells; 24 h, read-out: IC50 (24 h)) was 4.38. For the same compound, the pIC50 (U2OS cells; 48 h, read-out: IC50 (48 h)) was 4.59, the pIC50 (143B cells; 24 h, read-out: IC50 (24 h)) was 4.68 and the pIC50 (143B cells; 48 h, read-out: IC50 (48 h)) was 5.10. The pIC50 (MG63 cells; MG63, 24 h, read-out: IC50 (24 h)) was 4.52, the pIC50 (MG63 cells; MG63, 48 h, read-out: IC50 (48 h)) was 4.83 and the pIC50 (SJSA cells; 24 h, read-out: IC50 (24 h)) was 4.59. For the same compound, the pIC50 (SJSA cells; 48 h, read-out: IC50 (48 h)) was 4.99, the cell cycle arrest [3] was “G2/M cycle arrest occurred in cells” and the “cells in G1 phase” value [3] was “decrease of cells in G1 phase”. The “migration of osteosarcoma cell lines” value [4] was “greatly inhibited” and the “invasion of osteosarcoma cell lines” value ([4]; matrigel) was “greatly inhibited”.

For `O=P1(NCCCl)OCCCN1CCCl` (centres unmarked) [Ifosfamide, ifosfamide], the tolerability of chemotherapy ([5]; prior chemotherapy, 1 cycle, Jan. 19, 2017) was “no obvious gastrointestinal reaction and bone marrow suppression”, the leucocytopenia grade ([5]; prior chemotherapy, Aug. 16, 2017) was “Grade IV” and the leucocytopenia grade ([5]; prior chemotherapy, Jun. 19, 2017 (after doxorubicin and cisplatin Jun. 4, 2017)) was “Grade IV”. For the same compound, the leucocytopenia grade ([5]; prior chemotherapy, Mar. 10, 2017) was “Grade II”, the leucocytopenia grade ([5]; prior chemotherapy, May 3, 2017) was “Grade IV” and the platelet reduction grade ([6]; Apr. 18, 2018 to Apr. 22, 2018) was “Grade IV”. The therapeutic effect ([6]; Aug. 30, 2018 to Sep. 3, 2018) was “PD (progressive disease, specifically means that the sum of the diameters of the tumor target lesions increases by 20% or more from the baseline level)”.

`CN(Cc1cnc2nc(N)nc(N)c2n1)c1ccc(C(=O)N[C@@H](CCC(=O)O)C(=O)O)cc1` [Methotrexate, methotrexate] was tested, and the “bone marrow suppression grade” value ([5]; human, in vivo) was “Grade II” and the “bone marrow suppression grade” value [7] was “Grade I to II”.
